In BindingDB's records for PubMed 1656026 (University of Nebraska, 1991):
“And” between values parts separate entries of the source, which are not always exact repeats. Equal values may be shown once. Where a name gives a salt, the structure may show the parent alone. Numbered stars: 1 amine (or outer) side, 2 acyl side, 3 side chain; on linkers, the order of the positions; unused ones are H or OH. Square brackets hold non-standard residues; d marks the D form. Peptide text beside a SMILES is read from it. * marks the point of attachment. Cyclohexylacetyl(1-SH) = O=C(CC1(S)CCCCC1)*; X1 = O=C(C(C=S)N[*:1])[*:2]

Experiments:
[1] = target: T1, Alpha-2B adrenergic receptor (Rattus norvegicus, UniProt P19328)
T1 sequence (P19328 whole entry): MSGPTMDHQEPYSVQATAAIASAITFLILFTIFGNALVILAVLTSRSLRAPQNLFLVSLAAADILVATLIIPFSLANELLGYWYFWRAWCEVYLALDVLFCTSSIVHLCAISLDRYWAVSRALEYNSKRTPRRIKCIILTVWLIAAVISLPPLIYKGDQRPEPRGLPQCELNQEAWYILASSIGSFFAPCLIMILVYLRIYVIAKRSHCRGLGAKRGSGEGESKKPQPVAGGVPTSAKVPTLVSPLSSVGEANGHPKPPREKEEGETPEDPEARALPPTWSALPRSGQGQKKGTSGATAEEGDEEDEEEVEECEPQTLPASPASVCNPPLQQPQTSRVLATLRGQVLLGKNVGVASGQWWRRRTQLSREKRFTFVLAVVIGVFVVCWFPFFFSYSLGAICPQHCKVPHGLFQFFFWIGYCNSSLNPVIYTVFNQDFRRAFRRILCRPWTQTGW

[2] = target: Alpha-2C adrenergic receptor
[3] = target: T2, Alpha-2A adrenergic receptor (Homo sapiens, UniProt P08913)
T2 sequence (P08913 whole entry): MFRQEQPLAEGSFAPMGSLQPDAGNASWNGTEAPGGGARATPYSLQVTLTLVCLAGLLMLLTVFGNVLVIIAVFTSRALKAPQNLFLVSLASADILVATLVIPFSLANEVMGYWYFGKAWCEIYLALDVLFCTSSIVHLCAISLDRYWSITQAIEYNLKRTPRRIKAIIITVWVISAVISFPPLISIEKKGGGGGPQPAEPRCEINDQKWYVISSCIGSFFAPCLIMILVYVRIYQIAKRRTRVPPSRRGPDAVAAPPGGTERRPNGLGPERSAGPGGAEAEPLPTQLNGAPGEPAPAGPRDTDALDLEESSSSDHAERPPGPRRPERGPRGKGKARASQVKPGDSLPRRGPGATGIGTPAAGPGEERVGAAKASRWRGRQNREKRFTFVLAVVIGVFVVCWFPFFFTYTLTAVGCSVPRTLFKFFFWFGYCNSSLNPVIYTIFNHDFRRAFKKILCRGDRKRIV

[4] = target: T3, Alpha-2C adrenergic receptor (Didelphis virginiana, UniProt P35405)
T3 sequence (P35405 whole entry): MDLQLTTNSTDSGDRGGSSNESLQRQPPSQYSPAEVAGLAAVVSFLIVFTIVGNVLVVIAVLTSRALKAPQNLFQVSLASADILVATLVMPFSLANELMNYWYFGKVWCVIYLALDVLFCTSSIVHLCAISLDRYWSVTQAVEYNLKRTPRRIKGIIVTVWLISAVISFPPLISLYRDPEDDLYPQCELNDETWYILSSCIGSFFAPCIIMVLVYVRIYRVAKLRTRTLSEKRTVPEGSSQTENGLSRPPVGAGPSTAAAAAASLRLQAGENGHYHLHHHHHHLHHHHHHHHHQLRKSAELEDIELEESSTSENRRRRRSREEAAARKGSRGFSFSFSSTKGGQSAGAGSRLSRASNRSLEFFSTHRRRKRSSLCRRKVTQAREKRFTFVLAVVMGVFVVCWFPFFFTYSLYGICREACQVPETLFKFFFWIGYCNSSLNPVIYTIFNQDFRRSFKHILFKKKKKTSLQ

Row | SMILES | Ki [1] | Ki [2] | Ki [3] | Ki [4]
1 | CCCN(CCC)C1CCc2cccc(O)c2C1 (stereo unspecified) | 148 nM | 117 nM | 186 nM | –
2 | CC(C)(C)[C@]1(O)CCN2C[C@H]3c4ccccc4CCc4cccc(c43)[C@@H]2C1 | 12 nM | 42 nM | 53 nM | –
3 | c1ccc2c(c1)OCC(C1=NCCN1)O2 (stereo unspecified) | – | 0.56 nM | – | 2.4 nM
4 | CN1c2ccc(F)cc2CC1C1=NCCN1 (stereo unspecified) | 1 nM | 0.48 nM | 0.4 nM | –
5 | Clc1ccc2nsnc2c1NC1=NCCN1 | 76 nM | 75 nM | – | –
6 | OCCN1CCN(CCCN2c3ccccc3Sc3ccc(C(F)(F)F)cc32)CC1 [2-[4-[3-[2-(trifluoromethyl)phenothiazin-10-yl]propyl]piperazin-1-yl]ethanol;hydrochloride] | 320 nM | 122 nM | 304 nM | –
7 | O=C(c1ccc(F)cc1)C1CCN(CCn2c(=O)[nH]c3ccccc3c2=O)CC1 [3-(2-{4-[(4-fluorophenyl)carbonyl]piperidin-1-yl}ethyl)-1,2,3,4-tetrahydroquinazoline-2,4-dione] | 226 nM | 159 nM | – | –
8 | CN1CCN(C2=c3ccccc3=Nc3ccc(Cl)cc3N2)CC1 [6-chloro-10-(4-methylpiperazin-1-yl)-2,9-diazatricyclo[9.4.0.0^{3,8}]pentadeca-1,3(8),4,6,10,12,14-heptaene] | – | 4.2 nM | – | –
9 | O=C1NCN(c2ccccc2)C12CCN(CC1COc3ccccc3O1)CC2 (stereo unspecified) [8-(2,3-Dihydro-benzo[1,4]dioxin-2-ylmethyl)-1-phenyl-1,3,8-triaza-spiro[4.5]decan-4-one] | 0.34 nM | 0.59 nM | 13 nM | 0.67 nM
10 | CSc1ccc2c(c1)N(CC[C@@H]1CCCCN1C)c1ccccc1S2 [10-[2-(1-Methyl-piperidin-2-yl)-ethyl]-2-methylsulfanyl-10H-phenothiazine (thioridazine)] | – | 549 nM | – | –
11 | COC(=O)C1=CO[C@@H](C)[C@@H]2CN3CCc4c([nH]c5ccccc45)[C@H]3C[C@H]12 [AKUAMMIGINE] | 208 nM | 12 nM | 130 nM | –
12 | COC(=O)C1=COC(C)C2CN3CCc4c([nH]c5ccccc45)C3CC12 (stereo unspecified) [Ajmalicine] | – | 1.1 nM and 0.3 nM | – | –
13 | CN1C[C@H](Cn2ccnc2-c2ccccc2)C[C@@H]2c3cccc4[nH]c(Br)c(c34)C[C@H]21 [BAM-1303] | 26 nM | 0.38 nM | 2.5 nM | –
14 | O=C1c2ccccc2CCC1CNCCc1ccc(O)cc1 (stereo unspecified) [CAS_34772] | 0.68 nM | 0.5 nM | 0.93 nM | –
15 | Clc1cccc2c1CN(NC1=NCCN1)C2 [CAS_76727-72-5] | 0.14 nM | 0.08 nM | 0.06 nM | –
16 | Cc1nc2n(c(=O)c1CCN1CCC(C(=O)c3ccc(F)cc3)CC1)CCS2 [CAS_86487-64-1] | 25 nM | 51 nM | 90 nM | –
17 | CS(=O)(=O)NCCN(C1CCN2CCc3ccccc3C2C1)S(C)(=O)=O (stereo unspecified) [CAS_125697] | 5.2 nM | 0.56 nM | 11 nM | –
18 | Cc1cccc(C)c1CCc1cnc[nH]1 [CAS_133305] | 18 nM | 14 nM | 8.7 nM | –
19 | CCCS(=O)(=O)N(C)C1CCN2CCc3ccccc3C2C1 (stereo unspecified) [CAS_133816] | 1.9 nM | 0.86 nM | 2.2 nM | –
20 | CCOc1ccc(CC(NC(=O)CC2(S)CCCCC2)C(=O)NC(Cc2ccccc2)C(=O)NC(C(=O)NC(CC(N)=O)C(=O)NC(C=S)C(=O)NC(CCCCN)C(N)=O)C(C)C)cc1 (stereo unspecified) [CAS_196343] ({Cyclohexylacetyl(1-SH)}-Y(Et)FVN[X1]K-NH2; configuration not given here) | 0.48 nM | 0.14 nM | 0.36 nM | –

Row | SMILES | Ki [1] | Ki [2] | Ki [3] | Ki [4]
21 | CN1CCN(C2=Nc3ccccc3Sc3nccn32)CC1 [CGS-10746B] | 574 nM | 804 nM | 3600 nM | –
22 | Clc1cncc(N2CCNCC2)n1 [L-630,571] | 125 nM | 126 nM | 153 nM | –
23 | c1cn2ccnc2c(N2CCNCC2)n1 [L-639,019] | 34 nM | 88 nM | 35 nM | –
24 | Fc1cccnc1N1CCNCC1 [L-644,763] | 23 nM | 20 nM | 20 nM | –
25 | CN1CCC2(CCN3CCc4c(oc5ccccc45)C3C2)N(C)C1=O (stereo unspecified) [MK-912] | 0.26 nM | 0.03 nM | 0.42 nM | –
26 | Oc1ccc(C2CNCCc3c2cc(O)c(O)c3Cl)cc1 (stereo unspecified) [MLS001401388] | 91 nM | 22 nM | – | –
27 | CN1CCc2cccc(Cl)c2CC1 [MLS002172470] | 1.8 nM | 2.7 nM | 2.4 nM | –
28 | CCCCS(=O)(=O)N(C)[C@H]1CCN2CCc3ccccc3[C@H]2C1 [N-[(2S,11bR)-2,3,4,6,7,11b-hexahydro-1H-benzo[a]quinolizin-2-yl]-N-methylbutane-1-sulfonamide hydrochloride] | 1.7 nM | 0.46 nM | 1.4 nM | –
29 | C=CCN1Cc2ccccc2-c2ccccc2C1 [NSC_8966] | 5.3 nM | 14 nM | 38 nM | –
30 | CN(C)CCCN1c2ccc(O)cc2Sc2ccc(Cl)cc21 [NSC_16414] | 59 nM | 325 nM | – | –
31 | CCC1(c2cnc[nH]2)Cc2ccccc2C1 [NSC_71310] | – | 0.46 nM | 0.33 nM | 2.74 nM
32 | COc1ccccc1N1CCN(CCC2C(=O)c3ccccc3C(C)(C)C2=O)CC1 (stereo unspecified) [NSC_122211] | 1.6 nM | 13 nM | 171 nM | 48 nM
33 | CCOC1(C2=NCCN2)COc2ccccc2O1 (stereo unspecified) [NSC_125992] | 0.58 nM | 0.24 nM | 0.2 nM | –
34 | COc1cccc(OC)c1OCCNCC1Oc2ccccc2OC1c1ccccc1 (stereo unspecified) [NSC_185453] | 8.7 nM | 0.27 nM | 1.2 nM | 1.6 nM
35 | c1ccc2c(c1)OCC(CN1CCCCC1)O2 (stereo unspecified) [Piperoxan] | 2 nM | 1.3 nM | 5.4 nM | –
36 | CC(C)=CCOc1ccc(Cl)c2c1CCN(C)CC2 [SK&F-104078] | 49 nM | 43 nM | 32 nM | –
37 | Cc1cc(C(C)(C)C)c(O)c(C)c1CC1=NCCN1 [SMR000059324] | – | – | – | 73 nM
38 | c1ccc(CC2=NCCN2)cc1 [Tolazoline] | 113 nM | 222 nM | – | –
39 | CN(C)CCCN1c2ccccc2Sc2ccc(Cl)cc21 [[3-(2-Chloro-phenothiazin-10-yl)-propyl]-dimethyl-amine(Chlorpromazine)] | – | – | – | 116 nM
40 | COc1cc2nc(N3CCN(C(=O)c4ccco4)CC3)nc(N)c2cc1OC [[3H]-Minipress] | – | 15 nM | – | 36 nM
